Values of other authors as cited in patent US12070440B2, “Topical formulations of nitroglycerin” (PERMEATUS, INC., priority 2022, dated 2024).
Where two headings read alike, the source gives them in different places.

O=[N+]([O-])OCC(CO[N+](=O)[O-])O[N+](=O)[O-] [nitroglycerin, 1,2,3-trinitroxypropane]
decomposition by denitration to 1,2-GDN (acidic environment (0.1N HCl)): faster | decomposition by denitration to 1,2-GDN (pH 7.4): slow | decomposition by denitration to 1,2-GDN (pH values of 11 and above): rapid
